Key:
[1] = test system: Aspergillus niger glucoamylase II; assay: Kinetic constants of glucoamylases (release of glucose from substrate); type: biochemical; settings: Table VI
Description: In assaying the rate of release of glucose from starch, pullulan or maltose, enzyme solution (culture solution) (0.1 ml) undiluted or diluted up to 100-fold, was incubated with substrate solution (0.5 ml) for 5 to 20 minutes at 37° C. […]. This reaction was terminated and the color developed by adding 50% HCl solution (2 ml). Substrates employed were pullulan, maltose and J. T. Baker Starch (Lintner) Soluble all at 5 mg/ml concentration and in 0.1 M sodium acetate buffer pH 4.3. α-amylase was assayed by the method described in Marshall, J.J., et al, Clinica Chemica Acta, 76, 277 (1977).
The relative rates of hydrolysis of several glucooligosaccharides and polysaccharides are shown in Table V based upon data shown in FIG. 6-11. Results are compared to those obtained using Aspergillus niger glucoamylase II. […] Table VI provides the kinetic constants of the Cladosporium resinae glucoamylases and Asperigillus niger glucoamylase.

[2] = test system: Cladosporium resinae glucoamylase S; assay: as above; type: biochemical, Cladosporium resinae (ATCC No. 20495); settings: Table VI
Description: In assaying the rate of release of glucose from starch, pullulan or maltose, enzyme solution (culture solution) (0.1 ml) undiluted or diluted up to 100-fold, was incubated with substrate solution (0.5 ml) for 5 to 20 minutes at 37° C. for 1 hour. This reaction was terminated and the color developed by adding 50% HCl solution (2 ml). Substrates employed were pullulan, maltose and J. T. Baker Starch (Lintner) Soluble all at 5 mg/ml concentration and in 0.1 M sodium acetate buffer pH 4.3. α-amylase was assayed by the method described in Marshall, J.J., et al, Clinica Chemica Acta, 76, 277 (1977).

OC[C@H]1O[C@H](O[C@H]2[C@H](O)[C@@H](O)C(O)O[C@@H]2CO)[C@H](O)[C@@H](O)[C@@H]1O (mixture of isomers) [Maltose]
VMAX [1]: 4.8 μmoles glucose released per mi
VMAX [2]: 2.9 μmoles glucose released per mi

— patent US4318989A, “Starch-degrading enzymes from Cladosporium resinae” (Lifeline Products, Inc., priority 1980, dated 1982)
